≈ marks a conversion by molar mass, not a printed value.
Tests used:
Type in all cases: functional
Klebsiella pneumoniae [1] = assay: Antimicrobial activity against Klebsiella pneumoniae containing PFGE clone A expressing beta-lactamase Oxa-48, TEM-1, SHV-12 and Oxa-9 by Etest
Klebsiella pneumoniae [2] = assay: Antimicrobial activity against Klebsiella pneumoniae isolate 11 expressing beta-lactamase Oxa-48, TEM-1 and Oxa-1 by Etest
Klebsiella pneumoniae [3] = assay: Antimicrobial activity against Klebsiella pneumoniae isolate 21 expressing beta-lactamase Oxa-48, TEM-1 and Oxa-9 by Etest
Escherichia coli [4] = assay: Antimicrobial activity against Escherichia coli J53 by Etest
Escherichia coli [5] = assay: Antimicrobial activity against Escherichia coli J53 harboring beta-lactamase Oxa-48 by Etest
Klebsiella pneumoniae [6] = assay: Antimicrobial activity against Klebsiella pneumoniae containing PFGE clone B expressing beta-lactamase Oxa-48, TEM-1, CTX-M-15 and Oxa-1 by Etest
Escherichia coli [7] = assay: Antimicrobial activity against Escherichia coli J53 harboring beta-lactamase TEM-1, SHV-12 and Oxa-9 by Etest
Escherichia coli [8] = assay: Antimicrobial activity against Escherichia coli J53 harboring beta-lactamase TEM-1, CTX-M-15 and Oxa-1 by Etest
Escherichia coli [9] = assay: Antimicrobial activity against Escherichia coli J53 harboring beta-lactamase TEM-1, CTX-M-15 and Oxa-1 by Etest in presence of beta-lactamase inhibitor clavulanic acid
Escherichia coli [10] = assay: Antimicrobial activity against Escherichia coli J53 harboring beta-lactamase TEM-1, SHV-12 and Oxa-9 by Etest in presence of beta-lactamase inhibitor clavulanic acid
Klebsiella pneumoniae [11] = assay: Antimicrobial activity against Klebsiella pneumoniae containing PFGE clone A expressing beta-lactamase Oxa-48, TEM-1, SHV-12 and Oxa-9 by Etest in presence of beta-lactamase inhibitor clavulanic acid
Escherichia coli [12] = assay: Antimicrobial activity against Escherichia coli J53 harboring beta-lactamase Oxa-48 by Etest in presence of beta-lactamase inhibitor clavulanic acid
Klebsiella pneumoniae [13] = assay: Antimicrobial activity against Klebsiella pneumoniae isolate 21 expressing beta-lactamase Oxa-48, TEM-1 and Oxa-9 by Etest in presence of beta-lactamase inhibitor clavulanic acid
Klebsiella pneumoniae [14] = assay: Antimicrobial activity against Klebsiella pneumoniae isolate 11 expressing beta-lactamase Oxa-48, TEM-1 and Oxa-1 by Etest in presence of beta-lactamase inhibitor clavulanic acid
Klebsiella pneumoniae [15] = assay: Antimicrobial activity against Klebsiella pneumoniae containing PFGE clone B expressing beta-lactamase Oxa-48, TEM-1, CTX-M-15 and Oxa-1 by Etest in presence of beta-lactamase inhibitor clavulanic acid
Escherichia coli [16] = assay: Antimicrobial activity against Escherichia coli J53 by Etest in presence of beta-lactamase inhibitor clavulanic acid
Escherichia coli [17] = assay: Antimicrobial activity against Escherichia coli J53 by Etest in presence of beta-lactamase inhibitor Tazobactam
Klebsiella pneumoniae [18] = assay: Antimicrobial activity against Klebsiella pneumoniae containing PFGE clone A expressing beta-lactamase Oxa-48, TEM-1, SHV-12 and Oxa-9 by Etest in presence of beta-lactamase inhibitor Tazobactam
Klebsiella pneumoniae [19] = assay: Antimicrobial activity against Klebsiella pneumoniae containing PFGE clone B expressing beta-lactamase Oxa-48, TEM-1, CTX-M-15 and Oxa-1 by Etest in presence of beta-lactamase inhibitor Tazobactam
Escherichia coli [20] = assay: Antimicrobial activity against Escherichia coli J53 harboring beta-lactamase TEM-1, SHV-12 and Oxa-9 by Etest in presence of beta-lactamase inhibitor Tazobactam
Escherichia coli [21] = assay: Antimicrobial activity against Escherichia coli J53 harboring beta-lactamase Oxa-48 by Etest in presence of beta-lactamase inhibitor Tazobactam
Klebsiella pneumoniae [22] = assay: Antimicrobial activity against Klebsiella pneumoniae isolate 21 expressing beta-lactamase Oxa-48, TEM-1 and Oxa-9 by Etest in presence of beta-lactamase inhibitor Tazobactam
Escherichia coli [23] = assay: Antimicrobial activity against Escherichia coli J53 harboring beta-lactamase TEM-1, CTX-M-15 and Oxa-1 by Etest in presence of beta-lactamase inhibitor Tazobactam
Klebsiella pneumoniae [24] = assay: Antimicrobial activity against Klebsiella pneumoniae isolate 11 expressing beta-lactamase Oxa-48, TEM-1 and Oxa-1 by Etest in presence of beta-lactamase inhibitor Tazobactam

| Compound | MIC (Klebsiella pneumoniae [1]) [µg/mL] | MIC (Klebsiella pneumoniae [2]) [µg/mL] | MIC (Klebsiella pneumoniae [3]) [µg/mL] | MIC (Escherichia coli [4]) [µg/mL] | MIC (Escherichia coli [5]) [µg/mL] | MIC (Klebsiella pneumoniae [6]) [µg/mL] | MIC (Escherichia coli [7]) [µg/mL] | MIC (Escherichia coli [8]) [µg/mL] | further results |
| --- | --- | --- | --- | --- | --- | --- | --- | --- | --- |
| C[C@@H](O)[C@H]1C(=O)N2C(C(=O)O)=C(S[C@@H]3CN[C@H](C(=O)Nc4cccc(C(=O)O)c4)C3)[C@H](C)[C@H]12 | > 32 | > 32 | > 32 | < 1 | 0.25 (≈ 0.526 µM) | > 32 |  |  |  |
| CO/N=C(\C(=O)N[C@@H]1C(=O)N2C(C(=O)[O-])=C(C[N+]3(C)CCCC3)CS[C@H]12)c1csc(N)n1 |  | 4 (≈ 8.32 µM) | 4 (≈ 8.32 µM) | 0.125 (≈ 0.26 µM) | < 0.5 |  | 0.5 (≈ 1.04 µM) | 4 (≈ 8.32 µM) |  |
| NCC[C@H](O)C(=O)N[C@@H]1C[C@H](N)[C@@H](O[C@H]2O[C@H](CN)[C@@H](O)[C@H](O)[C@H]2O)[C@H](O)[C@H]1O[C@H]1O[C@H](CO)[C@@H](O)[C@H](N)[C@H]1O [AMIKACIN] | 16 (≈ 27.3 µM) |  |  |  |  | 2 (≈ 3.42 µM) |  |  |  |
| CC1(C)S[C@@H]2[C@H](NC(=O)[C@H](N)c3ccc(O)cc3)C(=O)N2[C@H]1C(=O)O [AMOXICILLIN] | > 512 | > 512 | > 512 | 1 (≈ 2.74 µM) | > 512 | > 512 | > 512 | > 512 | MIC (Escherichia coli [9]): > 513 µg/mL; MIC (Escherichia coli [10]): > 512 µg/mL; MIC (Klebsiella pneumoniae [11]): > 512 µg/mL; MIC (Escherichia coli [12]): > 512 µg/mL; MIC (Klebsiella pneumoniae [13]): > 512 µg/mL; MIC (Klebsiella pneumoniae [14]): > 512 µg/mL; MIC (Klebsiella pneumoniae [15]): > 512 µg/mL; MIC (Escherichia coli [16]): 1 µg/mL |
| C[C@H]1[C@H](NC(=O)/C(=N\OC(C)(C)C(=O)O)c2csc(N)n2)C(=O)N1S(=O)(=O)O [AZTREONAM] |  | 0.5 (≈ 1.15 µM) | 0.5 (≈ 1.15 µM) | 0.5 (≈ 1.15 µM) | < 0.125 |  | 64 (≈ 147 µM) | 8 (≈ 18.4 µM) |  |
| CO/N=C(\C(=O)N[C@@H]1C(=O)N2C(C(=O)O)=C(COC(C)=O)CS[C@H]12)c1csc(N)n1 [CEFOTAXIME] | > 512 | 4 (≈ 8.78 µM) | 4 (≈ 8.78 µM) | 0.5 (≈ 1.1 µM) | 0.5 (≈ 1.1 µM) | > 512 | 4 (≈ 8.78 µM) | > 32 |  |
| CO[C@@]1(NC(=O)Cc2cccs2)C(=O)N2C(C(=O)O)=C(COC(N)=O)CS[C@@H]21 [CEFOXITIN] | 16 (≈ 37.4 µM) | 16 (≈ 37.4 µM) | > 32 | 4 (≈ 9.36 µM) | 4 (≈ 9.36 µM) | > 32 | 2 (≈ 4.68 µM) | 2 (≈ 4.68 µM) |  |
| CC(C)(O/N=C(\C(=O)N[C@@H]1C(=O)N2C(C(=O)[O-])=C(C[n+]3ccccc3)CS[C@H]12)c1csc(N)n1)C(=O)O [CEFTAZIDIME] | > 512 | 2 (≈ 3.66 µM) | 2 (≈ 3.66 µM) | 1 (≈ 1.83 µM) | 1 (≈ 1.83 µM) | > 512 | 64 (≈ 117 µM) | 128 (≈ 234 µM) |  |
| C[C@@H](O)[C@H]1C(=O)N2C(C(=O)O)=C(SCCNC=N)C[C@H]12 [IMIPENEM ANHYDROUS] | 4 (≈ 13.4 µM) | 8 (≈ 26.7 µM) | 8 (≈ 26.7 µM) |  | 0.5 (≈ 1.67 µM) | 4 (≈ 13.4 µM) | < 1 | < 1 |  |
| NC[C@H]1O[C@H](O[C@H]2[C@H](O)[C@@H](O[C@H]3O[C@H](CO)[C@@H](O)[C@H](N)[C@H]3O)[C@H](N)C[C@@H]2N)[C@H](O)[C@@H](O)[C@@H]1O [KANAMYCIN] | > 256 |  |  |  |  | 128 (≈ 264 µM) |  |  |  |
| C[C@@H](O)[C@H]1C(=O)N2C(C(=O)O)=C(S[C@@H]3CN[C@H](C(=O)N(C)C)C3)[C@H](C)[C@H]12 [MEROPENEM] | > 32 |  |  | < 1 | 0.12 (≈ 0.313 µM) | 6 (≈ 15.6 µM) |  |  |  |
| CO[C@@]1(NC(=O)C(C(=O)O)c2ccc(O)cc2)C(=O)N2C(C(=O)O)=C(CSc3nnnn3C)CO[C@@H]21 (some centres not stated) [MOXALACTAM] | > 16 |  |  | 1 (≈ 1.92 µM) | 2 (≈ 3.84 µM) | > 16 | < 0.5 | < 0.5 |  |
| CCn1cc(C(=O)O)c(=O)c2ccc(C)nc21 [NALIDIXIC ACID] | > 64 |  |  |  |  | > 64 |  |  |  |
| CCN[C@@H]1C[C@H](N)[C@@H](O[C@H]2OC(CN)=CC[C@H]2N)[C@H](O)[C@H]1O[C@H]1OC[C@](C)(O)[C@H](NC)[C@H]1O [NETILMICIN] | > 128 |  |  |  |  | 3 (≈ 6.31 µM) |  |  |  |
| CCn1cc(C(=O)O)c(=O)c2cc(F)c(N3CCNCC3)cc21 [NORFLOXACIN] | 8 (≈ 25.1 µM) |  |  |  |  | > 256 |  |  |  |
| CC1COc2c(N3CCN(C)CC3)c(F)cc3c(=O)c(C(=O)O)cn1c23 (configuration not stated) [OFLOXACIN] | 2 (≈ 5.53 µM) |  |  |  |  | > 64 |  |  |  |
| CCN1CCN(C(=O)N[C@@H](C(=O)N[C@@H]2C(=O)N3[C@@H]2SC(C)(C)[C@@H]3C(=O)O)c2ccccc2)C(=O)C1=O [PIPERACILLIN] | > 512 | > 512 | > 512 | 4 (≈ 7.73 µM) | > 512 | > 512 | > 512 | > 512 | MIC (Escherichia coli [17]): 4 µg/mL; MIC (Klebsiella pneumoniae [18]): > 512 µg/mL; MIC (Klebsiella pneumoniae [19]): > 512 µg/mL; MIC (Escherichia coli [20]): > 4 µg/mL; MIC (Escherichia coli [21]): 64 µg/mL; MIC (Klebsiella pneumoniae [22]): > 512 µg/mL; MIC (Escherichia coli [23]): > 4 µg/mL; MIC (Klebsiella pneumoniae [24]): > 512 µg/mL |
| CN(C)[C@@H]1C(O)=C(C(N)=O)C(=O)[C@@]2(O)C(O)=C3C(=O)c4c(O)cccc4[C@@](C)(O)[C@H]3C[C@@H]12 [TETRACYCLINE] | > 256 |  |  |  |  | > 256 |  |  |  |
| CC1(C)S[C@@H]2[C@H](NC(=O)[C@H](C(=O)O)c3ccsc3)C(=O)N2[C@H]1C(=O)O [TICARCILLIN] | > 512 | > 512 | > 512 | 4 (≈ 10.4 µM) | > 512 | > 512 | > 512 | > 514 | MIC (Escherichia coli [9]): > 512 µg/mL; MIC (Escherichia coli [10]): > 512 µg/mL; MIC (Klebsiella pneumoniae [11]): > 512 µg/mL; MIC (Escherichia coli [12]): > 512 µg/mL; MIC (Klebsiella pneumoniae [13]): > 512 µg/mL; MIC (Klebsiella pneumoniae [14]): > 512 µg/mL; MIC (Klebsiella pneumoniae [15]): > 512 µg/mL; MIC (Escherichia coli [16]): 4 µg/mL |
| NC[C@H]1O[C@H](O[C@H]2[C@H](O)[C@@H](O[C@H]3O[C@H](CO)[C@@H](O)[C@H](N)[C@H]3O)[C@H](N)C[C@@H]2N)[C@H](N)C[C@@H]1O [TOBRAMYCIN] | > 64 |  |  |  |  | > 64 |  |  |  |
| COc1cc(Cc2cnc(N)nc2N)cc(OC)c1OC [TRIMETHOPRIM] | > 32 |  |  |  |  | > 32 |  |  |  |
| GENTAMICIN | > 64 |  |  |  |  | 1 |  |  |  |

— ChEMBL document CHEMBL1275467, “Spread of OXA-48-positive carbapenem-resistant Klebsiella pneumoniae isolates in Istanbul, Turkey” (2008)
